Data on 13 compounds can be found in ChEMBL document CHEMBL1201862, “PubChem BioAssay data set” (2004).

Some test systems named below: A498; CAKI-1; EKVX; HCT-116; K562; LOX IMVI; MOLT-4; Malme-3M; NCI-H226; OVCAR-4; RXF 393; SF-295; SN12C; M14; RPMI-8226; Hs-578T; MDA-MB-435; SR; TK-10; DU-145.
Assay in all cases: NCI anticancer screen, dose series, 48 h

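Compound exposure: 48 hours, 5 concentrations, 96-well plates. GI50 marks 50% less growth.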 Active and inactive are the calls of the source. Rule as the data show it: active = GI50 up to about 1.1 µM and inactive = higher.

For the compound `COc1ccc2c(c1)CCCc1cn[nH]c1-2`, the GI50 was > 100 µM (inactive) with A498; 77.8 µM (inactive) in the test on CAKI-1; > 74.6 µM (inactive) with EKVX; > 100 µM (inactive) with HCT-116; > 65.8 µM (inactive) in the test on K562; > 100 µM (inactive) with LOX IMVI. Also, the GI50 is > 100 µM (inactive) with MOLT-4; > 100 µM (inactive) in the test on Malme-3M; > 100 µM (inactive) with NCI-H226; > 100 µM (inactive) with OVCAR-4; > 89.1 µM (inactive) with RXF 393; > 100 µM (inactive) in the test with SF-295. For the same compound, in the test on SN12C, the GI50 is > 100 µM (inactive).

Turning to `CCNC(=O)N(CC)CN(CC)C(=O)NCC`, the GI50 in the test with A498, in the test on CAKI-1, in the test on EKVX, in the test on HCT-116, with K562 and in the test on LOX IMVI was > 100 µM (inactive) in each case. The GI50 in the test on M14, in the test with MOLT-4, in the test on Malme-3M, with NCI-H226, in the test on RPMI-8226 and in the test on SF-295 was > 100 µM (inactive) throughout. The GI50 with SN12C was > 100 µM (inactive).

On to `O=C1C2=C(C3=NCCc4c[nH]c1c43)C1(C=C(Br)C(O)C(Br)=C1)CCN2` (configuration not stated), for which the GI50 is 9.95 µM (inactive) in the test on A498; 4.4 µM (inactive) in the test on CAKI-1; 1.07 µM (active) in the test on EKVX; 0.625 µM (active) in the test on HCT-116; 2.3 µM (inactive) in the test on K562; 0.736 µM (active) in the test with LOX IMVI. For the same compound, the GI50 in the test with MOLT-4 is 0.721 µM (active); in the test on NCI-H226, 3.4 µM (inactive); with OVCAR-4, 1.47 µM (inactive); in the test with RPMI-8226 it was 1.9 µM (inactive); in the test with RXF 393, 2.56 µM (inactive); in the test on SF-295, 2.48 µM (inactive). The GI50 in the test with SN12C was 1.29 µM (inactive).

As for `CC(C)C1OC(=O)/C=C/C=C/C=C/C=C/C=C/CC(O)C(C)C(O)CC(O)CC(O)CC(O)CC(O)CC(O)CC(O)/C=C/C1C` (configuration not stated), the GI50 in the test on A498, with EKVX, in the test on Hs-578T, in the test with K562, with M14 and in the test on MDA-MB-435 was > 100 µM (inactive) each time. Besides, the GI50 was > 100 µM (inactive) in the test with MOLT-4; 70.5 µM (inactive) with Malme-3M; > 100 µM (inactive) in the test on OVCAR-4; > 100 µM (inactive) with RPMI-8226; > 100 µM (inactive) in the test on SF-295; > 100 µM (inactive) with SR. Further, the GI50 in the test with TK-10 is > 100 µM (inactive).

Consider `CNC(=O)SCC(NC(=O)CCC(N)C(=O)O)C(=O)NCC(=O)O` (configuration not stated), for which the GI50 in the test with A498 was > 100 µM (inactive); in the test on CAKI-1 it was > 100 µM (inactive); with EKVX, 75 µM (inactive); in the test with HCT-116 it was > 84.7 µM (inactive); in the test with K562, 34.8 µM (inactive); with LOX IMVI it was 67.9 µM (inactive). The GI50 with MOLT-4 was 60.8 µM (inactive); in the test on Malme-3M, > 65.5 µM (inactive); in the test on NCI-H226 it was > 100 µM (inactive); with OVCAR-4, > 100 µM (inactive); in the test on RPMI-8226 it was 42.3 µM (inactive); with RXF 393, > 100 µM (inactive). For the same compound, the GI50 in the test with SF-295 is > 100 µM (inactive); with SN12C, > 89.7 µM (inactive).

In the case of `CC(C)=CCc1c(C)cc2cc3c(c(O)c2c1O)C(=O)C=C(O)C3(CC=C(C)C)C/C=C(\C)CO` (configuration not stated), the GI50 with A498 was 8.81 µM (inactive); in the test with CAKI-1, 46.3 µM (inactive); in the test with EKVX, 35.7 µM (inactive); with HCT-116 it was 37 µM (inactive); in the test with K562, 23.3 µM (inactive); with LOX IMVI, 38.5 µM (inactive). For the same compound, the GI50 in the test on MOLT-4 is 23.2 µM (inactive); in the test on Malme-3M it was 32.3 µM (inactive); in the test on NCI-H226, 34.2 µM (inactive); with OVCAR-4, 37 µM (inactive); in the test on RPMI-8226, 20.7 µM (inactive); in the test on RXF 393, 29 µM (inactive). For the same compound, the GI50 with SF-295 was 45.2 µM (inactive); with SN12C, 31.1 µM (inactive).

For the compound `CC1=C(C(=O)NNS(=O)(=O)c2ccc(C)cc2)CC(C(=O)NNS(=O)(=O)c2ccc(C)cc2)=C(C)N1`, the GI50 in the test with CAKI-1 is 94.2 µM (inactive); with EKVX it was > 100 µM (inactive); in the test with HCT-116, > 100 µM (inactive); in the test on K562 it was 56.9 µM (inactive); with LOX IMVI, > 100 µM (inactive); with M14, > 100 µM (inactive). In addition, the GI50 with MOLT-4 was 46.8 µM (inactive); in the test on Malme-3M, > 100 µM (inactive); in the test on NCI-H226 it was > 100 µM (inactive); with OVCAR-4 it was > 100 µM (inactive); with RPMI-8226 it was 36.2 µM (inactive); with RXF 393, 92.7 µM (inactive). The GI50 is > 100 µM (inactive) in the test on SF-295, > 100 µM (inactive) with SN12C, 61.1 µM (inactive) in the test on SR and 56.4 µM (inactive) with TK-10.

In the case of `N#Cc1c(NC(=S)Nc2ccc(Cl)cc2)sc2c1CCCC2`, the GI50 in the test with A498 was > 100 µM (inactive); with CAKI-1, > 100 µM (inactive); in the test on DU-145, > 100 µM (inactive); with EKVX, 3.83 µM (inactive); in the test with HCT-116, > 100 µM (inactive); with K562 it was 29.4 µM (inactive). In addition, the GI50 is > 100 µM (inactive) with LOX IMVI; > 100 µM (inactive) with MDA-MB-435; 16.6 µM (inactive) in the test on MOLT-4; 41.2 µM (inactive) in the test with Malme-3M; > 100 µM (inactive) in the test with NCI-H226; 5.16 µM (inactive) with OVCAR-4. In addition, the GI50 was 24.2 µM (inactive) in the test on RPMI-8226; > 100 µM (inactive) with RXF 393; > 100 µM (inactive) in the test with SF-295; 3.37 µM (inactive) with SN12C; 25.1 µM (inactive) with SR; > 100 µM (inactive) with TK-10.

Turning to `FC(F)(F)C1=NC(=NNc2nnc(-c3ccccc3)c(-c3ccccc3)n2)N=C(C(F)(F)F)C1`, the GI50 with A498 is 11.6 µM (inactive); with CAKI-1 it was 27.2 µM (inactive); in the test on EKVX, 10.2 µM (inactive); in the test with HCT-116 it was 11.6 µM (inactive); with K562, 4.11 µM (inactive); with LOX IMVI, 12.7 µM (inactive). Moreover, the GI50 in the test with MOLT-4 was 5.51 µM (inactive); with Malme-3M it was > 100 µM (inactive); in the test with NCI-H226 it was 29.4 µM (inactive); with OVCAR-4, 13.1 µM (inactive); with RPMI-8226, 12.2 µM (inactive); with RXF 393, 7.57 µM (inactive). Also, the results for the GI50 in the test on SF-295 and in the test with SN12C were 8.2 µM (inactive) and > 72.9 µM (inactive), respectively.

With `ICC1CCCO1` (configuration not stated), the GI50 with A498, with CAKI-1, in the test with EKVX, in the test with HCT-116, in the test with LOX IMVI and with M14 was > 100 µM (inactive) in each case. The GI50 with MOLT-4, in the test with Malme-3M, in the test with NCI-H226, with OVCAR-4, with RPMI-8226 and in the test with RXF 393 was > 100 µM (inactive) each time. Also, the GI50 in the test on SF-295, with SN12C, in the test with SR and in the test on TK-10 was > 100 µM (inactive) each time.

As for `CC(C)(C)[C@H]1CO[C@]2(C)[C@@H]3C[C@@H]3C(=O)N12`, the GI50 with CAKI-1, in the test with EKVX, with HCT-116, in the test on K562, with LOX IMVI and in the test with M14 was > 100 µM (inactive) in each case. The GI50 with Malme-3M, in the test on NCI-H226, in the test on OVCAR-4, with RPMI-8226, in the test with RXF 393 and in the test with SF-295 was > 100 µM (inactive) in each case. The GI50 in the test with SN12C, with SR and in the test with TK-10 was > 100 µM (inactive) each time.

For the compound `C[N+]1(C)CCCC(C#N)(c2ccccc2)CC1` (configuration not stated), the GI50 in the test on A498, in the test with CAKI-1, in the test with DU-145, in the test with EKVX, in the test with HCT-116 and in the test with Hs-578T was > 100 µM (inactive) each time. The GI50 in the test with K562, in the test with M14, in the test with MOLT-4, in the test on Malme-3M, with OVCAR-4 and in the test with RPMI-8226 was > 100 µM (inactive) in each case. The GI50 in the test with RXF 393, in the test with SF-295, in the test with SR and in the test with TK-10 was > 100 µM (inactive) each time.

Consider `O=S1(=O)C[C@H](O)[C@H](O)CS1`, for which the GI50 with A498, in the test on CAKI-1, in the test with EKVX, in the test with HCT-116, in the test with K562 and with LOX IMVI was > 100 µM (inactive) in each case. The GI50 in the test with M14, in the test on MOLT-4, in the test on Malme-3M, in the test on NCI-H226, in the test with OVCAR-4 and with RPMI-8226 was > 100 µM (inactive) in each case. The GI50 in the test on RXF 393, in the test on SF-295, in the test on SN12C, in the test with SR and in the test on TK-10 was > 100 µM (inactive) throughout.
